Patent US20190350964A1, “ANTI-CANCER COMPOUNDS AND USES THEREOF” (NATIONAL UNIVERSITY OF SINGAPORE, priority 2016, published 2019)

Experiments:
normal BJ cells = assay: γ-H2AX immunofluorescence (DNA damage); type: cell-based, human; conditions: 48 h; a131 2.5 and 5 μM, etoposide 100 μM
Description: For immunofluorescence analysis, cells grown on coverglass-bottom chamber slides (Lab-Tek) were fixed with 4% PFA (paraformaldehyde) for 15 min at 25° C. The fixed cells were permeabilized with 0.5% Triton X-100 and exposed to TBS containing 0.1% Triton X-100 and 2% BSA (AbDil). The following primary antibodies were diluted in PBS containing 1% BSA and 0.1% Triton X-100: anti-γ-tubulin (Sigma-Aldrich, #T6557; 1:1000) and anti-β-tubulin (Abcam, #ab18207; 1:2000). […] Cells were counterstained with DAPI (Thermo Scientific). […] For time-lapse live-cell analysis, a Stage Top Incubator with Digital CO2 mixer (Tokai) was used, and images were acquired at 37° C.

PIK3IP1 = assay: qRT-PCR of PIK3IP1 mRNA in Ras- or Raf-mutant cancer cell lines; type: cell-based, human; conditions: 2.5 and 5 μM, 24 h; compared with normal cells
Description: […] human […] ID NO: 11, [NT] ID NO: 12), human […] ID NO: 13, [NT] ID NO: 14), human […] ID NO: 15, [NT] ID NO: 16) and human PIK3IP1 ([NT] ID NO: 17, [NT] ID NO: 18). The TATA-binding protein (TBP) gene was used for normalization. All PCR reactions were performed in triplicate.

Adenosine kinase = biological target: T1, Adenosine kinase (Homo sapiens, UniProt P55263); assay: MS-CETSA in normal BJ cell lysates; type: binding; conditions: lysate, 100 μM compound
T1 construct: After collecting data covering >8,000 proteins in lysates of normal BJ cells; endogenous in cells; host or cells: normal BJ cells, lysate
T1 sequence (P55263 whole entry): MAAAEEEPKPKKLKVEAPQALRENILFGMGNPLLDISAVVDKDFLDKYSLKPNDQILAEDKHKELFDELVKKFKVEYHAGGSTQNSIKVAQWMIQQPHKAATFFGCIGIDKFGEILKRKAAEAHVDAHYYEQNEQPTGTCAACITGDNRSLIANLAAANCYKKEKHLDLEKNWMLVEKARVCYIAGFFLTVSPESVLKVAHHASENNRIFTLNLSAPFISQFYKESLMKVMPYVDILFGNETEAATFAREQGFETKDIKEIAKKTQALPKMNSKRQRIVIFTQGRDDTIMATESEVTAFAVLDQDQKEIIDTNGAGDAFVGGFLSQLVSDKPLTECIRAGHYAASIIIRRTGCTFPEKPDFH
Description: (§1) Target identification was performed by cellular thermal shift assay (CETSA) coupled with quantitative mass spectrometry. In brief, normal BJ cells were lysed by combination of freeze/thaw and mechanical shearing with needle in buffer [50 mM HEPES (pH 7.5), 5 mM β-glycerophosphate, 0.1 mM Sodium Vanadate, 10 mM MgCl2, 1 mM TCEP and 1× Protease inhibitor Cocktail]. The cell debris was removed by centrifugation at 20,000 g for 20 min at 4° C. […] Each lysate was divided into 10 aliquots for heat treatment at the respective temperatures for 3 min in a 96-well thermocycler, followed by 3 min at 4° C. The lysate was centrifuged at 20,000 g for 20 min at 4° C. and the supernatant was transferred into microtubes for MS sample preparation.
(§2) After lysis, at least 100 μg of the protein (measured with a BCA assay) was subjected to reduction, denaturation and alkylation. Samples were subsequently incubated with sequencing grade LysC (Wako) and trypsin (Promega) for digestion overnight at 37° C. The digested samples were dried using a centrifugal vacuum evaporator, solubilized in 100 mM TEAB. […]
(§3) Proteins for which a low temperature plateau was not present were deleted using a cut off >0.85 for the average reading of the first three temperature points (in our experience proteins melting already at −37° C. are more prone to give false positives in a shift analysis).

IST1 = assay: MTT cytotoxicity test (GI50); type: cell-based; conditions: Homo sapiens; IST1, cancer, gastric; MTT 72 h
[1] = biological target: T2, Isoform 3 of Cleavage and polyadenylation specificity factor subunit 7 (Homo sapiens, UniProt Q8N684); assay: MS-CETSA in normal BJ cell lysates; type: binding; conditions: Uniprot Q8N684-3, lysate, 100 μM compound
T2 construct: After collecting data covering >8,000 proteins in lysates of normal BJ cells; endogenous in cells; host or cells: normal BJ cells, lysate
T2 sequence (Q8N684 1-514 isoform Q8N684-3): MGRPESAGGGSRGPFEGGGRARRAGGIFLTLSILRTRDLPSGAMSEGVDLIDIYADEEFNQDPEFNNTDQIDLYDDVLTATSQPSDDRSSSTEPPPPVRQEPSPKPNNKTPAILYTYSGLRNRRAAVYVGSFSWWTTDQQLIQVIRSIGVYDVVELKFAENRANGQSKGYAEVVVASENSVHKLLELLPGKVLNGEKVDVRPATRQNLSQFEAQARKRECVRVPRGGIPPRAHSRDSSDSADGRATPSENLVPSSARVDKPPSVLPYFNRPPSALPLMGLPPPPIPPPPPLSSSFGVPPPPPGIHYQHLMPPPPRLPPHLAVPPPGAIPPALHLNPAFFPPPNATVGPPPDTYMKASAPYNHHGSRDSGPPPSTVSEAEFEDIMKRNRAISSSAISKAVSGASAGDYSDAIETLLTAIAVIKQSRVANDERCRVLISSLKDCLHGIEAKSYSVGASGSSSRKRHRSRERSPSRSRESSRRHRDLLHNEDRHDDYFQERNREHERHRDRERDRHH
Description: as §1, §2, §3

transformed BJ cells [2] = assay: FACS analysis of the cell cycle (BrdU and PI double staining); type: cell-based, human; conditions: 2.5 μM, 48 h
Description: Cell death was assessed via Annexin V and/or PI (propidium iodide) staining according to the manufacturer's instructions (eBioscience). Cell growth arrest was assessed by direct measurement of DNA synthesis through incorporation of the nucleoside analog bromodeoxyuridine (BrdU). Briefly, BrdU (30 μM, Sigma-Aldrich) was added for 2 h before harvesting cells. Cells were subsequently stained with Pacific Blue-conjugated BrdU antibody (Invitrogen) for 1 h followed by PI staining. Stained cells were analyzed by MACSQuant (MACS). Three independent experiments were performed in triplicate. The percentage of Annexin V/PI- or BrdU-positive cells was quantified using Flow Jo software (Becton Dickinson). Where indicated, the combined activity of caspase-3/7 was determined using the caspase-Glo 3/7 Assay Kit (Promega) and normalized to the number of viable cells as determined by MTT assay.

Pyridoxal kinase = biological target: T3, Pyridoxal kinase (Homo sapiens, UniProt O00764); assay: MS-CETSA in normal BJ cell lysates; type: binding; conditions: lysate, 100 μM compound
T3 construct: After collecting data covering >8,000 proteins in lysates of normal BJ cells; endogenous in cells; host or cells: normal BJ cells, lysate
T3 sequence (O00764 whole entry): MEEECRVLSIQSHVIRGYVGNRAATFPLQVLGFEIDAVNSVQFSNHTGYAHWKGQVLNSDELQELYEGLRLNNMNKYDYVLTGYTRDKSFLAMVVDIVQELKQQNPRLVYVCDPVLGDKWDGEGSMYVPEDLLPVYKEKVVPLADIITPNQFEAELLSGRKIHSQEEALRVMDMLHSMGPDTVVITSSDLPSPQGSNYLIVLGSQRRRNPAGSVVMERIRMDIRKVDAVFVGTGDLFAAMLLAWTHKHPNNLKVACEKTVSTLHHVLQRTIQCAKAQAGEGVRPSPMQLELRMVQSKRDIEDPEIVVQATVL
Description: as §1, §2, §3

human normal cell lines = assay: MTT cytotoxicity test, panel of human normal cell lines; type: cell-based; conditions: mean over panel of human normal cell lines; MTT 72 h
IMR90 = assay: MTT cytotoxicity test (GI50); type: cell-based; conditions: Homo sapiens, IMR-90; IMR90, normal, lung; MTT 72 h
HCT15 = assay: MTT cytotoxicity test (GI50); type: cell-based; conditions: Homo sapiens, HCT-15; HCT15, cancer, colon; MTT 72 h
AGS = assay: MTT cytotoxicity test (GI50); type: cell-based; conditions: Homo sapiens, cancer, gastric, MTT 72 h
NCC59 = assay: MTT cytotoxicity test (GI50); type: cell-based; conditions: Homo sapiens; NCC59, cancer, gastric; MTT 72 h
A549 = assay: MTT cytotoxicity test (GI50); type: cell-based; conditions: Homo sapiens; A549, cancer, others, lung; MTT 72 h
SNU1750 = assay: MTT cytotoxicity test (GI50); type: cell-based; conditions: Homo sapiens; SNU1750, cancer, gastric; MTT 72 h
BJ normal = assay: MTT cytotoxicity test (GI50); type: cell-based; conditions: Homo sapiens, skin, MTT 72 h
IM95 = assay: MTT cytotoxicity test (GI50); type: cell-based; conditions: Homo sapiens; IM95, cancer, gastric; MTT 72 h
transformed BJ cells [3] = assay: Time-lapse live-cell imaging and immunofluorescence of mitosis; type: cell-based, human; conditions: 2.5 μM
Description: For immunofluorescence analysis, cells grown on coverglass-bottom chamber slides (Lab-Tek) were fixed with 4% PFA (paraformaldehyde) for 15 min at 25° C. The fixed cells were permeabilized with 0.5% Triton X-100 and exposed to TBS containing 0.1% Triton X-100 and 2% BSA (AbDil). The following primary antibodies were diluted in PBS containing 1% BSA and 0.1% Triton X-100: anti-γ-tubulin (Sigma-Aldrich, #T6557; 1:1000) and anti-β-tubulin (Abcam, #ab18207; 1:2000). Isotype-specific secondary antibodies (1:500 dilution) coupled to Alexa Fluor 488, 594, or Cy5 (Molecular Probes) were used. Cells were counterstained with DAPI (Thermo Scientific). Images were acquired at RT with 3D-SIM mode using a Super Resolution Microscope (Nikon) equipped with an iXon EM+885 EMCCD camera (Andor) mounted on a Nikon Eclipse Ti-E inverted microscope with a CFI Apo TIRF (100×/1.40 oil) objective and processed with the NIS-Elements AR software. For time-lapse live-cell analysis, a Stage Top Incubator with Digital CO2 mixer (Tokai) was used, and images were acquired at 37° C.

SCH = assay: MTT cytotoxicity test (GI50); type: cell-based; conditions: Homo sapiens, cancer, gastric, MTT 72 h

Compound: N#C/C(=C\c1cccc2cnccc12)c1c[nH]c2ccccc12 [a131, (Z)-2-(1H-indol-3-yl)-3-(5-isoquinolyl)prop-2-enenitrile]
- DNA damage (γ-H2AX staining) (normal BJ cells): did not do so
- induction of PIK3IP1 in Ras- and Raf-mutant cancer cells (PIK3IP1): significantly attenuated
- ED score (Adenosine kinase): 0.4158
- ΔTm at 100 µM (Adenosine kinase; read-out: mean Delta Tm): 1.74 °C
- GI50 (IST1): 2200 nM
- ED score [1]: 0.3008
- mean Delta Tm ([1]; in °C (unit assumed)): 1.653
- aneuploidy (>4N) (transformed BJ cells [2]): significantly induced aneuploidy (>4N) only in transformed BJ cells
- cell death (<2N, subG1) (transformed BJ cells [2]; transformed versus normal BJ cells): dramatically induced cell death (<2N) through apoptosis
- ED score (Pyridoxal kinase): 0.4486
- ΔTm at 100 µM (Pyridoxal kinase; read-out: mean Delta Tm): 2.01 °C
- GI50 (human normal cell lines): 6500 nM
- GI50 (IMR90): 5800 nM
- GI50 (HCT15): 500 nM
- GI50 (AGS): 1100 nM
- GI50 (NCC59): 900 nM
- GI50 (A549): 2000 nM
- GI50 (SNU1750): 700 nM
- GI50 (BJ normal): 8100 nM
- GI50 (IM95): 1000 nM
- mitotic arrest (time-lapse analysis) (transformed BJ cells [3]): immediately induced mitotic arrest in transformed BJ cells
- centrosome de-clustering and multipolar mitotic spindles (transformed BJ cells [3]; 32 h): caused de-clustered centrosomes and multipolar mitotic-spindles in transformed BJ
- GI50 (SCH): 1700 nM
